Experiments:
[1] = Water content (DIN 51777-1); format: physicochemical
From the text: (§1) Die nachfolgende Tabelle 3 gibt die Eigenschaften der wie oben beschriebenen Verbindungen wieder. Tabelle 3.

[2] = Dissolution (gelling) temperature of PVC in plasticizer, plate/plate rheometer, temperature at viscosity maximum; format: physicochemical; conditions: 5 phr PVC, 95 phr plasticizer, 2 phr Ba-Zn stabilizer; 5 °C/min; mean of four measurements
From the text: Anwendungstechnische Prüfungen: II.a) Bestimmung der Lösetemperatur der offenbarungsgemäßen Weichmacher-Zusammensetzungen: Zur Bestimmung der Lösetemperatur der offenbarungsgemäßen Weichmacher-Zusammensetzungen wurden etwa 10 Gramm einer Mischungen nach folgender Rezeptur (siehe Tabelle 4) hergestellt. Die Mischung wird mit einer Pipette aufgerührt und dann sofort ca. 30 Tropfen der homogenen Mischung auf das Platte-Platte-Messsystem gegeben. Tabelle 4.
Die Viskositätsmessungen wurden mit einem beheizbaren Oszillations- und Rotations-Rheometer MCR 302 von Anton Paar in einem Rotationsversuch durchgeführt.
Die Messung erfolgte in zwei Rampen. Die erste Rampe für die Dauer von 120 s bei D=10 (1/s) und 30 °C dient zum Temperieren der Probe. Die zweite Rampe bei D=10 (1/s) und kontinuierlicher Temperatursteigerung von 5 °C min ist dann die eigentliche Messung. Der Abbruch erfolgte manuell, nachdem das Viskositätsmaximum überschritten war. Als Ergebnis der Messung wird die Temperatur ermittelt, bei der das Maximum der Viskosität erreicht ist. Diese Messungen werden insgesamt viermal durchgeführt und der arithmetische Mittelwert aller vier Messungen als das Endergebnis gewertet. Il.b) Herstellung und Prüfung von Weich-PVC-Folien hergestellt unter Einsatz erfindungsgemäßer Weichmacher-Zusammensetzungen

[3] = Acid number (DIN EN ISO 2114); format: physicochemical
From the text: as §1

[4] = Density at 20 °C (DIN 51757 method 4); format: physicochemical; conditions: DIN 51757 Verf. 4
From the text: as §1

[5] = Refractive index nD20 (DIN 51423-2); format: physicochemical
From the text: as §1

[6] = Viscosity at 20 °C (DIN 51562-1); format: physicochemical
From the text: as §1

[7] = HCl residual stability of plasticized PVC films at 200 °C; conditions: PVC film, 60 phr plasticizer
From the text: Rezeptur: siehe nachfolgende Tabelle 5. Tabelle 5.
150 g PVC (Homopolymeres Suspensions-PVC, Markenname Inovyn® 271 PC); 90 g Weichmacher-Zusammensetzung und 3 g Ba/Zn-Stabilisator, Markenname Baerostab® UBZ 760 XLP RF wurden mit einem Handmixer bei Raumtemperatur vermischt. Die Mischung wurde anschließend auf einem ölbeheizten Labormischwalzwerk (Fa. Collin, Automatikwalzwerk Typ W250M, Durchmesser: 252 mm, Breite: 450 mm) plastifiziert und zu einem Walzfell verarbeitet. Die Temperatur der beiden Walzen betrug jeweils 180 °C; die Drehzahlen lagen bei 15 Umdrehungen/min. (vordere Walze) und 12 Umdrehungen/min. (hintere Walze); die Walzzeit betrug 5 Minuten. Der Walzenspalt wurde auf 0,5 mm eingestellt. Man erhielt so ein Walzfell mit einer Dicke von 0,53 mm. Das abgekühlte Walzfell wurde anschließend bei einer Temperatur von 190 °C und einem Druck von 150 bar innerhalb von 180 s auf einer Presse vom Typ "Laborplattenpresse 400 P" der Fa. Collin zu einer Weich-PVC-Folie mit einer Dicke von 0,50 mm verpresst. Unter Beibehaltung des Pressdrucks wurde die Pressfolie innerhalb von 10 Minuten auf ca. 40 °C abgekühlt.
Die Bestimmung der HCl-Reststabilität erfolgt nach DIN EN 60811-405 (VDE 0473-811-405): Als Prüfgerät wird ein Metallblock-Thermostat von Liebisch Labortechnik bei einer Prüftemperatur von 200 °C verwendet. Es wird immer eine 3-fach Bestimmung vorgenommen. Ca. 50 mg der Walzfolien werden abgewogen, auf 3 cm Länge zugeschnitten und im unteren Teil des Glasröhrchens positioniert. Am oberen Ende des Glasröhrchens wird ein ca. 10 mm langer Indikatorpapierstreifen (Lackmusspapier) so positioniert, dass ca. 2 mm herausstehen. Die so präparierten Glasröhrchen werden in den Metallblock positioniert und die Zeit notiert, bis ein Farbumschlag in Richtung Rot auftritt. Aus den drei Messwerten der drei Proben wird der arithmetische Mittelwert gebildet.

In the case of CC(C)CCCC(C)CCOC(=O)CCC(=O)CCC(=O)OCCC(C)CCCC(C)C (stereo not shown) [Verbindung I.2, 4-Oxoheptandisäure-di-(3,7-dimethyloctylester)], the Wassergehalt [1] was 0,013 Gew.-%, the Lösetemperatur [2] was 147 °C and the Säurezahl [3] was 0,26 mg KOH/g. For the same compound, the “Dichte, 20 °C” value [4] was 0,9456 g/cm^3, the “Brechzahl, n^D20” value [5] was 1,5160 and the “Viskosität, 20 °C” value [6] was 52 mPa·s. For the same compound, the HCl-Reststabilität [7] was 13,4 min.

In the case of CCCCC(CC)COC(=O)CCC(=O)CCC(=O)OCC(CC)CCCC (stereo not shown) [4-Oxoheptandisäure-di-(2-ethylhexylester), reference compound], the Wassergehalt [1] was 0,07 Gew.-%, the Lösetemperatur [2] was 127 °C and the Säurezahl [3] was 1,5 mg KOH/g. The “Dichte, 20 °C” value [4] was 0,9661 g/cm^3, the “Brechzahl, n^D20” value [5] was 1,4534 and the “Viskosität, 20 °C” value [6] was 32 mPa·s. The HCl-Reststabilität [7] was 11,1 min.

In the case of “4-Oxoheptandisäure-di-isotridecylester [Verbindung I.6]”, the Wassergehalt [1] was 0,016 Gew.-%, the Lösetemperatur [2] was 162 °C and the Säurezahl [3] was 0,31 mg KOH/g. The “Dichte, 20 °C” value [4] was 0,9365 g/cm^3, the “Brechzahl, n^D20” value [5] was 1,4605 and the “Viskosität, 20 °C” value [6] was 101 mPa·s. For the same compound, the HCl-Reststabilität [7] was 12 min.

In the case of CCCCCC(CCC)COC(=O)CCC(=O)CCC(=O)OCC(CCC)CCCCC (stereo not shown) [Verbindung I.1, 4-Oxoheptandisäure-di-(2-propylheptylester)], the Wassergehalt [1] was 0,003 Gew.-%, the Lösetemperatur [2] was 139 °C and the Säurezahl [3] was 1,1 mg KOH/g. The “Dichte, 20 °C” value [4] was 0,9473 g/cm^3, the “Brechzahl, n^D20” value [5] was 1,4553 and the “Viskosität, 20 °C” value [6] was 51 mPa·s. For the same compound, the HCl-Reststabilität [7] was 15 min.

Reference: patent EP4638411B1, “PLASTICIZER” (priority 2022, dated 2024)
